# Measurements published in PMC5290327, “SC83288 is a clinical development candidate for the treatment of severe malaria” (Nature Communications, 2017).
# What was measured:
# Experiment in all cases: KINOMEscan
# Format in all cases: binding
# Settings in all cases: read-out: Remaining enzyme activity
# ABL1(E255K) = target: T1, ABL1(E255K) (Homo sapiens, UniProt P00519, E255K)
# T1 construct: purchased Ambit (DiscoverX) KINOMEscan; Cerep
# Summary of the method: (§1)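 Kinase preparations were T7 phage fusions produced in E. coli (32 °C until lysis, lysates clarified) or HEK-293-expressed proteins with DNA tags. These were mixed with immobilized active-site ligand and SC81458 at 10 μM. The amount of kinase in eluates was determined by qPCR.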
# ABL1(Q252H) = target: T2, ABL1(Q252H) (Homo sapiens, UniProt P00519, Q252H)
# T2 construct: purchased Ambit (DiscoverX) KINOMEscan; Cerep
# Summary of the method: as §1
# ACVR1 = target: T3, ACVR1 (Homo sapiens, UniProt Q04771)
# T3 construct: purchased Ambit (DiscoverX) KINOMEscan; Cerep
# Summary of the method: as §1
# AKT2 = target: T4, AKT2 (Homo sapiens, UniProt P31751)
# T4 construct: purchased Ambit (DiscoverX) KINOMEscan; Cerep
# Summary of the method: as §1
# AURKB = target: T5, AURKB (Homo sapiens, UniProt Q96GD4)
# T5 construct: purchased Ambit (DiscoverX) KINOMEscan; Cerep
# Summary of the method: as §1
# BIKE = target: T6, BIKE (Homo sapiens, UniProt Q9NSY1)
# T6 construct: purchased Ambit (DiscoverX) KINOMEscan; Cerep
# Summary of the method: as §1
# BRSK1 = target: T7, BRSK1 (Homo sapiens, UniProt Q8TDC3)
# T7 construct: purchased Ambit (DiscoverX) KINOMEscan; Cerep
# Summary of the method: as §1
# CSK = target: T8, CSK (Homo sapiens, UniProt P41240)
# T8 construct: purchased Ambit (DiscoverX) KINOMEscan; Cerep
# T8 sequence (P41240 whole entry): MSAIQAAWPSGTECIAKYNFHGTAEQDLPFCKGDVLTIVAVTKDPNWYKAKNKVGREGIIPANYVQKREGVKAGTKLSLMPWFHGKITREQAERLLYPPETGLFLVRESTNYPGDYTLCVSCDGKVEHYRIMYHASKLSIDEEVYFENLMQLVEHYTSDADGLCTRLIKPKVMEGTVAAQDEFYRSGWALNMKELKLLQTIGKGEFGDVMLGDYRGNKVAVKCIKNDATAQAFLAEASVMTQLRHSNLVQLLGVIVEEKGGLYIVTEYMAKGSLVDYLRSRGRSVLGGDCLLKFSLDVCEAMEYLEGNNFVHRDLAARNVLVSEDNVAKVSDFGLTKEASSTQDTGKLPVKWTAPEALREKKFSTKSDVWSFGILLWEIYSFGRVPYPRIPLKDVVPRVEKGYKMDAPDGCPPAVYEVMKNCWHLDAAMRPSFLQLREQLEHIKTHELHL
# Summary of the method: as §1
# EPHA4 = target: T9, EPHA4 (Homo sapiens, UniProt P54764)
# T9 construct: purchased Ambit (DiscoverX) KINOMEscan; Cerep
# Summary of the method: as §1
# ERBB4 = target: T10, ERBB4 (Homo sapiens, UniProt Q15303)
# T10 construct: purchased Ambit (DiscoverX) KINOMEscan; Cerep
# Summary of the method: as §1
# FRK = target: T11, FRK (Homo sapiens, UniProt P42685)
# T11 construct: purchased Ambit (DiscoverX) KINOMEscan; Cerep
# T11 sequence (P42685 whole entry): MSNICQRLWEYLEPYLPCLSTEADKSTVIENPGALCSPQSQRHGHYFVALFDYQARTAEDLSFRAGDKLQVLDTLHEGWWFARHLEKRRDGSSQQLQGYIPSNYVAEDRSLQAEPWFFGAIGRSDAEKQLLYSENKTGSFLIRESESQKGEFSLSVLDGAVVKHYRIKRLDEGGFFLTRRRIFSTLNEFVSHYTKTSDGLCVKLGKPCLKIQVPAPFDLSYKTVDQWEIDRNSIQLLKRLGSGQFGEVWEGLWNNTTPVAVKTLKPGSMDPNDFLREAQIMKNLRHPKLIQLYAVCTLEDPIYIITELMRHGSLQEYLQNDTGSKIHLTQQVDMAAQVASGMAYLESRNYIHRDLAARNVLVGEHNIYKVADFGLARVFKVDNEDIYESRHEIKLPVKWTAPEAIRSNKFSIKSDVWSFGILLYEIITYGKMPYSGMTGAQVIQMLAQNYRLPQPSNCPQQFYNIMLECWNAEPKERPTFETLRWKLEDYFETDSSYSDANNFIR
# Summary of the method: as §1
# FYN = target: T12, FYN (Homo sapiens, UniProt P06241)
# T12 construct: purchased Ambit (DiscoverX) KINOMEscan; Cerep
# Summary of the method: as §1
# GRK7 = target: T13, GRK7 (Homo sapiens, UniProt Q8WTQ7)
# T13 construct: purchased Ambit (DiscoverX) KINOMEscan; Cerep
# T13 sequence (Q8WTQ7 whole entry): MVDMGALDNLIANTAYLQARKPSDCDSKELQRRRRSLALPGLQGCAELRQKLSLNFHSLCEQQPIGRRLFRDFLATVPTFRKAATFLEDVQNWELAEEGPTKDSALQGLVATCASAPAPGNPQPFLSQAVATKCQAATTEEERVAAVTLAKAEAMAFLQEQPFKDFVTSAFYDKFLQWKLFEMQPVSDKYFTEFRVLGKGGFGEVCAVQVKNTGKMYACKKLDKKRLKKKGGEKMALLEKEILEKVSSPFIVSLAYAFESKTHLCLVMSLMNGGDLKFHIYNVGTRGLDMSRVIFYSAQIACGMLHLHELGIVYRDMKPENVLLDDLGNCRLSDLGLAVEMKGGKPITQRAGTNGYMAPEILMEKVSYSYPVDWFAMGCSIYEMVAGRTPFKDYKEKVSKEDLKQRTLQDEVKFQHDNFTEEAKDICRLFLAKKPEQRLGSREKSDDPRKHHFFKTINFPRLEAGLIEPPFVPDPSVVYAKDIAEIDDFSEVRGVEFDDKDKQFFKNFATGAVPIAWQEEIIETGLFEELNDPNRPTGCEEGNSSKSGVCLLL
# Summary of the method: as §1
# HIPK4 = target: T14, HIPK4 (Homo sapiens, UniProt Q8NE63)
# T14 construct: purchased Ambit (DiscoverX) KINOMEscan; Cerep
# Summary of the method: as §1
# MAP3K4 = target: T15, MAP3K4 (Homo sapiens, UniProt Q9Y6R4)
# T15 construct: purchased Ambit (DiscoverX) KINOMEscan; Cerep
# T15 sequence (Q9Y6R4 whole entry): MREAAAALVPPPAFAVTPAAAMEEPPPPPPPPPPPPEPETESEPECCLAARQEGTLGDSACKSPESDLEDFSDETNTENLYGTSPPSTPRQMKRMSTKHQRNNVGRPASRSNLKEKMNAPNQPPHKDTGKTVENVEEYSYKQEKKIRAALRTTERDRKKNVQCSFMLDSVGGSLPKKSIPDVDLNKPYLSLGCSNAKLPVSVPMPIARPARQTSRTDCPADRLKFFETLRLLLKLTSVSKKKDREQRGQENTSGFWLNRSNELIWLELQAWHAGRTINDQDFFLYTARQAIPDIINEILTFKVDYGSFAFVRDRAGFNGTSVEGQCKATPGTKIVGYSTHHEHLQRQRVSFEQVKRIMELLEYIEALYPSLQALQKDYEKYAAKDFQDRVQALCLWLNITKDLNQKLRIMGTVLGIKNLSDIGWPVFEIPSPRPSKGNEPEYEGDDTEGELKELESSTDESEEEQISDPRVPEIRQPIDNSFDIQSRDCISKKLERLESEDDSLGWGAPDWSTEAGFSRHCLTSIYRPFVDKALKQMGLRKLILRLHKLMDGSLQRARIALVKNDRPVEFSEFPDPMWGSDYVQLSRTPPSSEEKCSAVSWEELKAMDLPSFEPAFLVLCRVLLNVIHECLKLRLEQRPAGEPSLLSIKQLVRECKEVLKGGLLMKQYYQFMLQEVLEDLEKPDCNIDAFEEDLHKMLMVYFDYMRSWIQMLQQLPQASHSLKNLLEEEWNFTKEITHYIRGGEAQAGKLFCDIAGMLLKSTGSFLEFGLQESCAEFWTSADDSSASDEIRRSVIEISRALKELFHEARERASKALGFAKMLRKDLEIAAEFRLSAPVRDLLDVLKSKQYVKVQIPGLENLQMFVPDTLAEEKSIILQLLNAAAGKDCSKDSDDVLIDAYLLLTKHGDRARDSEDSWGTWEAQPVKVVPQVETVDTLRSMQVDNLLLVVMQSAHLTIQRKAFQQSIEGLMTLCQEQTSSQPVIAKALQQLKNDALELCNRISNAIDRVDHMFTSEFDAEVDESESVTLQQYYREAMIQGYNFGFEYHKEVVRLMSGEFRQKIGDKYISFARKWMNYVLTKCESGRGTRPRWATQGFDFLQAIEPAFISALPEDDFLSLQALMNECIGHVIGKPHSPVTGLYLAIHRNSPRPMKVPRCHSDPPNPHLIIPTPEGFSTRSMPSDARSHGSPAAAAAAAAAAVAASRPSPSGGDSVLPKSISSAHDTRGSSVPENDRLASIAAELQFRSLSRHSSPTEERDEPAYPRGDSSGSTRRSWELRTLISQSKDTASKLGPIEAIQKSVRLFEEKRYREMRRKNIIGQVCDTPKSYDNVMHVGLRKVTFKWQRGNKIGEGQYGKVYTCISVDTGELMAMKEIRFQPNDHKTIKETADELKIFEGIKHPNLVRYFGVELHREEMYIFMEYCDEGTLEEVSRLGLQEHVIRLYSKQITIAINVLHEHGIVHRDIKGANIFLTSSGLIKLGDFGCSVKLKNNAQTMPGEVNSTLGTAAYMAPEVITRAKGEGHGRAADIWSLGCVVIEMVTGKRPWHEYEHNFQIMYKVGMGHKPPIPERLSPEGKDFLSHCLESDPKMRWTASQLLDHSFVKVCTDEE
# Summary of the method: as §1
# MARK3 = target: T16, MARK3 (Homo sapiens, UniProt P27448)
# T16 construct: purchased Ambit (DiscoverX) KINOMEscan; Cerep
# Summary of the method: as §1
# PDPK1 = target: T17, PDPK1 (Homo sapiens, UniProt O15530)
# T17 construct: purchased Ambit (DiscoverX) KINOMEscan; Cerep
# T17 sequence (O15530 whole entry): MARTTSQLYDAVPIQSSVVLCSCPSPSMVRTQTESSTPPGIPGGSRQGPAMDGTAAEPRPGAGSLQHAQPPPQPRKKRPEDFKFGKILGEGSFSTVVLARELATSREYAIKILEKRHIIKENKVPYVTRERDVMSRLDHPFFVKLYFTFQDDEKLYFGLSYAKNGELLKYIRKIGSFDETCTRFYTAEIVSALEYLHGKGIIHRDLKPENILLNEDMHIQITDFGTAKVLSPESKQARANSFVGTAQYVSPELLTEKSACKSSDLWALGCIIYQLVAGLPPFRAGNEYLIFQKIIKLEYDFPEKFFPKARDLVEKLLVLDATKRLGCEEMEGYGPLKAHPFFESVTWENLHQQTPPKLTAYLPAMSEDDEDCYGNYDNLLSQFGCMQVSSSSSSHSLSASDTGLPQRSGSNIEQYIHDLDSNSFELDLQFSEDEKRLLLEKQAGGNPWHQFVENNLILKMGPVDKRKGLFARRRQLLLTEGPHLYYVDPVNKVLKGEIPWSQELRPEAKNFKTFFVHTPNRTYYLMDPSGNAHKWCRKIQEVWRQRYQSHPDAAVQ
# Summary of the method: as §1
# PIK3CA = target: T18, PIK3CA (Homo sapiens, UniProt P42336)
# T18 construct: purchased Ambit (DiscoverX) KINOMEscan; Cerep
# Summary of the method: as §1
# PIP5K1a = target: T19, PIP5K1a (Homo sapiens, UniProt Q99755)
# T19 construct: purchased Ambit (DiscoverX) KINOMEscan; Cerep
# Summary of the method: as §1
# PKAC-apha = target: T20, PKAC-apha (Homo sapiens, UniProt P17612)
# T20 construct: purchased Ambit (DiscoverX) KINOMEscan; Cerep
# Summary of the method: as §1
# PRKCD = target: T21, PRKCD (Homo sapiens, UniProt Q05655)
# T21 construct: purchased Ambit (DiscoverX) KINOMEscan; Cerep
# Summary of the method: as §1
# RIPK1 = target: T22, RIPK1 (Homo sapiens, UniProt Q13546)
# T22 construct: purchased Ambit (DiscoverX) KINOMEscan; Cerep
# Summary of the method: as §1
# ROCK2 = target: T23, ROCK2 (Homo sapiens, UniProt O75116)
# T23 construct: purchased Ambit (DiscoverX) KINOMEscan; Cerep
# Summary of the method: as §1
# [1] = target: T24, RPS6KA2(Kin.Dom.1-N-term) (Homo sapiens, UniProt Q15349)
# T24 construct: RPS6KA2(Kin.Dom.1-N-term); purchased Ambit (DiscoverX) KINOMEscan; Cerep
# T24 sequence (Q15349 59-318 limits assumed): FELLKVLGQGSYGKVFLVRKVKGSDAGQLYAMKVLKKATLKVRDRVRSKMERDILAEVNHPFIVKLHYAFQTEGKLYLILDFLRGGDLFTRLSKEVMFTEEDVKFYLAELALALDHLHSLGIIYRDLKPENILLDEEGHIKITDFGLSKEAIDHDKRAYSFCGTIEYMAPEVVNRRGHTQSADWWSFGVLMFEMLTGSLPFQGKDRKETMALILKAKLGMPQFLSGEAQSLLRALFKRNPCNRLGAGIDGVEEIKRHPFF
# Summary of the method: as §1
# [2] = target: T25, RPS6KA2(Kin.Dom.2-C-term) (Homo sapiens, UniProt Q15349)
# T25 construct: RPS6KA2(Kin.Dom.2-C-term); purchased Ambit (DiscoverX) KINOMEscan; Cerep
# Summary of the method: as §1
# [3] = target: T26, RPS6KA5(Kin.Dom.2-C-term) (Homo sapiens, UniProt O75582)
# T26 construct: RPS6KA5(Kin.Dom.2-C-term); purchased Ambit (DiscoverX) KINOMEscan; Cerep
# T26 sequence (O75582 426-687 limits assumed): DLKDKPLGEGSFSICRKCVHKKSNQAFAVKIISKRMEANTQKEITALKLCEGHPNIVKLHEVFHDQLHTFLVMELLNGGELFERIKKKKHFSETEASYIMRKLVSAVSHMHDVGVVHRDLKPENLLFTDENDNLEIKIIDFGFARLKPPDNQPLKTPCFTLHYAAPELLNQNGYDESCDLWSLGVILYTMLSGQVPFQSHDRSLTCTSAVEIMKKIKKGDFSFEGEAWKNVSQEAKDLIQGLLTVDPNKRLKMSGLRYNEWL
# Summary of the method: as §1
# [4] = target: T27, RPS6KA6(Kin.Dom.1-N-term) (Homo sapiens, UniProt Q9UK32)
# T27 construct: RPS6KA6(Kin.Dom.1-N-term); purchased Ambit (DiscoverX) KINOMEscan; Cerep
# Summary of the method: as §1
# SNARK = target: T28, SNARK (Homo sapiens, UniProt Q9H093)
# T28 construct: purchased Ambit (DiscoverX) KINOMEscan; Cerep
# T28 sequence (Q9H093 whole entry): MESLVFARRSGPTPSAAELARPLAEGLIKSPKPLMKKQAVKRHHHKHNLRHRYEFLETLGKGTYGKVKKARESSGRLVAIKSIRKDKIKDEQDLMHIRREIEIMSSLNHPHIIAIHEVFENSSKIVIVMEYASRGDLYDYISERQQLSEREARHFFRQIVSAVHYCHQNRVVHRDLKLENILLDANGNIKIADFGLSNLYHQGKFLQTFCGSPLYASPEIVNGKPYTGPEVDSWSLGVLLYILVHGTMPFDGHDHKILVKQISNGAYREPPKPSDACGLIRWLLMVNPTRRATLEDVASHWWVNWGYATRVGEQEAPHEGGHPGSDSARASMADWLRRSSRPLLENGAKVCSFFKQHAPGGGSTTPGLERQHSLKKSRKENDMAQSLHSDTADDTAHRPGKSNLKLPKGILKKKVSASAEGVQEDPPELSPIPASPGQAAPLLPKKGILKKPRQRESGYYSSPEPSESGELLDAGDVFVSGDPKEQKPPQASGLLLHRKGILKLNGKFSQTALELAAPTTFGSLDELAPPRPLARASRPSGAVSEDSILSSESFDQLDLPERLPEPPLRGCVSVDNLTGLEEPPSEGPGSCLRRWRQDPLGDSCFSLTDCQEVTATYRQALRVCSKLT
# Summary of the method: as §1
# TXK = target: T29, TXK (Homo sapiens, UniProt P42681)
# T29 construct: purchased Ambit (DiscoverX) KINOMEscan; Cerep
# Summary of the method: as §1
# TYRO3 = target: T30, TYRO3 (Homo sapiens, UniProt Q06418)
# T30 construct: purchased Ambit (DiscoverX) KINOMEscan; Cerep
# Summary of the method: as §1
# VEGFR2 = target: T31, VEGFR2 (Homo sapiens, UniProt P35968)
# T31 construct: purchased Ambit (DiscoverX) KINOMEscan; Cerep
# Summary of the method: as §1
structure (smiles),measurement,setting,value
"CCCCN1CCN(C(=N)c2cccc(NC(=O)Nc3ccc(S(=O)(=O)NCc4ccc(S(N)(=O)=O)cc4)cc3)c2)CC1 [SC81458, 4-(3-(3-((4-butylpiperazin-1-yl)(imino)methyl)phenyl)ureido)-N-(4-sulfamoylbenzyl) benzenesulfonamide]",remaining binding at 10 µM,ABL1(E255K),100%
same,remaining binding at 10 µM,ABL1(Q252H),95%
same,remaining binding at 10 µM,ACVR1,84%
same,remaining binding at 10 µM,AKT2,84%
same,remaining binding at 10 µM,AURKB,78%
same,remaining binding at 10 µM,BIKE,85%
same,remaining binding at 10 µM,BRSK1,69%
same,remaining binding at 10 µM,CSK,100%
same,remaining binding at 10 µM,EPHA4,98%
same,remaining binding at 10 µM,ERBB4,100%
same,remaining binding at 10 µM,FRK,100%
same,remaining binding at 10 µM,FYN,100%
same,remaining binding at 10 µM,GRK7,100%
same,remaining binding at 10 µM,HIPK4,100%
same,remaining binding at 10 µM,MAP3K4,100%
same,remaining binding at 10 µM,MARK3,99%
same,remaining binding at 10 µM,PDPK1,74%
same,remaining binding at 10 µM,PIK3CA,83%
same,remaining binding at 10 µM,PIP5K1a,100%
same,remaining binding at 10 µM,PKAC-apha,75%
same,remaining binding at 10 µM,PRKCD,100%
same,remaining binding at 10 µM,RIPK1,100%
same,remaining binding at 10 µM,ROCK2,76%
same,remaining binding at 10 µM,[1],100%
same,remaining binding at 10 µM,[2],100%
same,remaining binding at 10 µM,[3],100%
same,remaining binding at 10 µM,[4],68%
same,remaining binding at 10 µM,SNARK,100%
same,remaining binding at 10 µM,TXK,87%
same,remaining binding at 10 µM,TYRO3,79%
same,remaining binding at 10 µM,VEGFR2,84%
